Test results taken from PMC10878397, “Development of Potent Dual BET/HDAC Inhibitors via Pharmacophore Merging and Structure-Guided Optimization” (ACS Chemical Biology, 2024).

Key:
[1] = system: HEXIM1 mRNA in PaTu8988T cells; assay: Quantitative RT-PCR of BET-inhibition biomarker; assay type: cell-based; settings: 6 h, 1 μΜ compound
Procedure: Total RNA was extracted from cell culture using the Maxwell RSC simply RNA Cells Kit (Promega) according to the manufacturer’s protocol. cDNA was synthesized using PrimeScript Reverse Transcriptase (TakaRa) and amplified using homemade PCR master mix. The amplicon was detected by EvaGreen Dye using a LightCycler 480 instrument (Roche). PCR conditions were 5 min at 95 °C, followed by 45 cycles of 95 °C for 10 s, 59 °C for 10 s, and 72 °C for 20 s. The relative gene expression levels were normalized to GUSB and calculated using the 2^–ΔΔC^t method.

[2] = target: T1, HDAC10 (Homo sapiens, UniProt Q969S8); assay: HDAC selectivity profile (Reaction Biology); assay type: biochemical; settings: no inhibitor control as 100%, read-out: % Enzyme activity HDAC10
T1 construct: purchased Reaction Biology
Procedure: (§1) The reactions were performed by Reaction Biology using a protease-coupled assay with fluorogenic substrates where, after deacetylation by the HDAC and subsequent proteolytic digest, the free fluorophore 7-amino-4-methyl coumarin (AMC) can be quantified.[60] The following substrates were used for activity assays: HDACs 1, 2, 3, and 6: fluorogenic tetrapeptide from p53 residues 379–382 (RHKK(Ac) AMC); HDACs 4, 5, 7, 9, and 11: fluorogenic HDAC class2a substrate (trifluoroacetyl lysine); HDAC8: twice acetylated fluorogenic tetrapeptide from p53 residues 379–382 (RHK(Ac) K(Ac) AMC); HDAC10: Ac-spermidine-AMC. Data are given as % residual activity compared with the uninhibited control reaction.

[3] = target: T2, HDAC11 (Homo sapiens, UniProt Q96DB2); assay: HDAC selectivity profile (Reaction Biology); assay type: biochemical; settings: no inhibitor control as 100%
T2 construct: purchased Reaction Biology
T2 sequence (Q96DB2 1-347): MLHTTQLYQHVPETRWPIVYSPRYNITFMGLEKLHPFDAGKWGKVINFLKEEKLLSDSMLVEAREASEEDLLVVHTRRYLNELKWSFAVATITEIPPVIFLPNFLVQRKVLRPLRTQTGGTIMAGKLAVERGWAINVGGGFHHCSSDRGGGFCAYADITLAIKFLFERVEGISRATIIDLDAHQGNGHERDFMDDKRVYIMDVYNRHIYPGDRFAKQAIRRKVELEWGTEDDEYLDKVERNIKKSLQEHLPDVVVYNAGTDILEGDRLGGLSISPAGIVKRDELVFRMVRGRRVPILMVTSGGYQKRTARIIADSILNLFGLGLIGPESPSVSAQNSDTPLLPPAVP
Procedure: as §1

[4] = target: T3, HDAC4 (Homo sapiens, UniProt P56524); assay: HDAC selectivity profile (Reaction Biology); assay type: biochemical; settings: no inhibitor control as 100%, read-out: % Enzyme activity HDAC4
T3 construct: purchased Reaction Biology
Procedure: as §1

[5] = target: T4, HDAC5 (Homo sapiens, UniProt Q9UQL6); assay: HDAC selectivity profile (Reaction Biology); assay type: biochemical; settings: no inhibitor control as 100%, read-out: % Enzyme activity HDAC5
T4 construct: purchased Reaction Biology
Procedure: as §1

[6] = target: T5, HDAC6 (Homo sapiens, UniProt Q9UBN7); assay: HDAC selectivity profile (Reaction Biology); assay type: biochemical; settings: no inhibitor control as 100%, read-out: % Enzyme activity HDAC6
T5 construct: purchased Reaction Biology
Procedure: as §1

[7] = target: T6, HDAC7 (Homo sapiens, UniProt Q8WUI4); assay: HDAC selectivity profile (Reaction Biology); assay type: biochemical; settings: no inhibitor control as 100%, read-out: % Enzyme activity HDAC7
T6 construct: purchased Reaction Biology
Procedure: as §1

[8] = target: T7, HDAC8 (Homo sapiens, UniProt Q9BY41); assay: HDAC selectivity profile (Reaction Biology); assay type: biochemical; settings: no inhibitor control as 100%, read-out: % Enzyme activity HDAC8
T7 construct: purchased Reaction Biology
Procedure: as §1

[9] = target: T8, HDAC9 (Homo sapiens, UniProt Q9UKV0); assay: HDAC selectivity profile (Reaction Biology); assay type: biochemical; settings: no inhibitor control as 100%, read-out: % Enzyme activity HDAC9
T8 construct: purchased Reaction Biology
Procedure: as §1

[10] = target: HDAC2 (Homo sapiens, UniProt Q92769); assay: HDAC selectivity profile (Reaction Biology); assay type: biochemical; parameters: purchased Reaction Biology; settings: no inhibitor control as 100%, read-out: % Enzyme activity HDAC2
Procedure: as §1

[11] = target: HDAC3 (Homo sapiens, UniProt O15379); assay: HDAC selectivity profile (Reaction Biology); assay type: biochemical; parameters: purchased Reaction Biology; settings: no inhibitor control as 100%
Procedure: as §1

HDAC3, sequence (O15379 whole entry): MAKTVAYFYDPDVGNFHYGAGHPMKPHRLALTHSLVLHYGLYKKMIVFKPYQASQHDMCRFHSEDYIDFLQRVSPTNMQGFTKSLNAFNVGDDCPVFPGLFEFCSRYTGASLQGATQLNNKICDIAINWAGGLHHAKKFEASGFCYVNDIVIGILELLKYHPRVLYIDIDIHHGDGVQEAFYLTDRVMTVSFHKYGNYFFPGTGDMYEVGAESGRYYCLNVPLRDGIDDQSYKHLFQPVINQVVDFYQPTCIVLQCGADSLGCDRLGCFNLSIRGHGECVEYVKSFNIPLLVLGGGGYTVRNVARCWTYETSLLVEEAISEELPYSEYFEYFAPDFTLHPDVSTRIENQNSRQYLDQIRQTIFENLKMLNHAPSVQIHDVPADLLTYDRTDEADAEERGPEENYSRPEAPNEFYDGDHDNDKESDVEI
HDAC3, sequence (Q9Y618 395-489 partner limits assumed): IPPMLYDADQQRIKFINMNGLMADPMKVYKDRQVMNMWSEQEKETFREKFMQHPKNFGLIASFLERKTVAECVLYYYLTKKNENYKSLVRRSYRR
HDAC2, sequence (Q92769 whole entry): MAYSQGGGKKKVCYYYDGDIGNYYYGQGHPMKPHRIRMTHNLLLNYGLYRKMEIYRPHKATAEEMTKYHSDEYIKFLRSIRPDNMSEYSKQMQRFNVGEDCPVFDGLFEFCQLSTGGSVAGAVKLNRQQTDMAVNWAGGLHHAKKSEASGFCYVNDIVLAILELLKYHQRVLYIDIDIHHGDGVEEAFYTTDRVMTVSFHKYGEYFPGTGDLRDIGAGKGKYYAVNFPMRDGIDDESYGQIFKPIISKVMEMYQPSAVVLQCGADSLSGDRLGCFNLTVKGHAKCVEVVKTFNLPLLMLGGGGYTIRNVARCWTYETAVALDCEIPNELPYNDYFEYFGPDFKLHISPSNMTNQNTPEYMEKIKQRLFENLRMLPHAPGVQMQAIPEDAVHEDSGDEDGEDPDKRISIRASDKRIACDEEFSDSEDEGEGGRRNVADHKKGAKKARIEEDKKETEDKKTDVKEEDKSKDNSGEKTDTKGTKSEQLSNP
T8 sequence (Q9UKV0 whole entry): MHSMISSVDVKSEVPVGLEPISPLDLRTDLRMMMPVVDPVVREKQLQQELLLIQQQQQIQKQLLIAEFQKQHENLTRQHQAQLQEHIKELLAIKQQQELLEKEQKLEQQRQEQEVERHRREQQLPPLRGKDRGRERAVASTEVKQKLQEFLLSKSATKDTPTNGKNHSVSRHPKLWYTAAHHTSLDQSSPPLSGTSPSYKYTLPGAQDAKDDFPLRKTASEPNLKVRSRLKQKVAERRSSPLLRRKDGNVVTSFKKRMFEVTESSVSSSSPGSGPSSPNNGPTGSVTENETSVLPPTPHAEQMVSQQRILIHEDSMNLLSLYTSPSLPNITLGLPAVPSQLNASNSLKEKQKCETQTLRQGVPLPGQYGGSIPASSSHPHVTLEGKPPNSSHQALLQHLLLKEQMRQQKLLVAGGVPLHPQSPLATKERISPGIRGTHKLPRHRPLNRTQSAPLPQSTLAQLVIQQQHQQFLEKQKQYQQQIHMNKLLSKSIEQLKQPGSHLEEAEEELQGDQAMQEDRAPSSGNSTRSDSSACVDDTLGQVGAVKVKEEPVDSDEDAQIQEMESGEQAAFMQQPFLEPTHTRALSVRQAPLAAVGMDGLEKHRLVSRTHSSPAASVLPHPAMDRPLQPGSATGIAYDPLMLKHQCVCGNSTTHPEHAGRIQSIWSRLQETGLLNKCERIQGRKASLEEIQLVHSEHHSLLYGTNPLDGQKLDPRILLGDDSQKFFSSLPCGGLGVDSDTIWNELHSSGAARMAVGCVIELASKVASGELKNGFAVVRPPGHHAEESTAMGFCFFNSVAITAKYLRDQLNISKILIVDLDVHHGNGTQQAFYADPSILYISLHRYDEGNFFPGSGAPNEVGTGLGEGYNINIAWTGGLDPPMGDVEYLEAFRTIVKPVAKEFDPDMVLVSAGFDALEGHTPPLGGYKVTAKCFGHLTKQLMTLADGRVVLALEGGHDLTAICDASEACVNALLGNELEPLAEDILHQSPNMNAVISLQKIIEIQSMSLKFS
T1 sequence (Q969S8 whole entry): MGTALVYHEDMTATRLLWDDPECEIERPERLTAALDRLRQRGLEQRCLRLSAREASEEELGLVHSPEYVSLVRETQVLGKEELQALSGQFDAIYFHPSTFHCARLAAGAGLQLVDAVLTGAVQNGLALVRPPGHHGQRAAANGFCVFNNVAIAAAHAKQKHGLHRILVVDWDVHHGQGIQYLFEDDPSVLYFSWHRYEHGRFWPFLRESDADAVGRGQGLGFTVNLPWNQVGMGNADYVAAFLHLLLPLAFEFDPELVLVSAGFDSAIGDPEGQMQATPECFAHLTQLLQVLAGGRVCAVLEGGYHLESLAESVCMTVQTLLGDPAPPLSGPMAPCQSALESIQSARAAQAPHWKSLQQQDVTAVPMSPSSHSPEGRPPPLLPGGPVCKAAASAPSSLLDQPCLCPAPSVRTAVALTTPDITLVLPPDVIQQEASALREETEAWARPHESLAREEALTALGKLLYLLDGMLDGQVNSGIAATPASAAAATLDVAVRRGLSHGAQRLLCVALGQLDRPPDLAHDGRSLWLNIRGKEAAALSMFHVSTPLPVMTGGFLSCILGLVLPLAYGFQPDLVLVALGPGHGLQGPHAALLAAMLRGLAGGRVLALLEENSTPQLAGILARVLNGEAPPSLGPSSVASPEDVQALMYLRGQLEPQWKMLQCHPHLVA
T3 sequence (P56524 whole entry): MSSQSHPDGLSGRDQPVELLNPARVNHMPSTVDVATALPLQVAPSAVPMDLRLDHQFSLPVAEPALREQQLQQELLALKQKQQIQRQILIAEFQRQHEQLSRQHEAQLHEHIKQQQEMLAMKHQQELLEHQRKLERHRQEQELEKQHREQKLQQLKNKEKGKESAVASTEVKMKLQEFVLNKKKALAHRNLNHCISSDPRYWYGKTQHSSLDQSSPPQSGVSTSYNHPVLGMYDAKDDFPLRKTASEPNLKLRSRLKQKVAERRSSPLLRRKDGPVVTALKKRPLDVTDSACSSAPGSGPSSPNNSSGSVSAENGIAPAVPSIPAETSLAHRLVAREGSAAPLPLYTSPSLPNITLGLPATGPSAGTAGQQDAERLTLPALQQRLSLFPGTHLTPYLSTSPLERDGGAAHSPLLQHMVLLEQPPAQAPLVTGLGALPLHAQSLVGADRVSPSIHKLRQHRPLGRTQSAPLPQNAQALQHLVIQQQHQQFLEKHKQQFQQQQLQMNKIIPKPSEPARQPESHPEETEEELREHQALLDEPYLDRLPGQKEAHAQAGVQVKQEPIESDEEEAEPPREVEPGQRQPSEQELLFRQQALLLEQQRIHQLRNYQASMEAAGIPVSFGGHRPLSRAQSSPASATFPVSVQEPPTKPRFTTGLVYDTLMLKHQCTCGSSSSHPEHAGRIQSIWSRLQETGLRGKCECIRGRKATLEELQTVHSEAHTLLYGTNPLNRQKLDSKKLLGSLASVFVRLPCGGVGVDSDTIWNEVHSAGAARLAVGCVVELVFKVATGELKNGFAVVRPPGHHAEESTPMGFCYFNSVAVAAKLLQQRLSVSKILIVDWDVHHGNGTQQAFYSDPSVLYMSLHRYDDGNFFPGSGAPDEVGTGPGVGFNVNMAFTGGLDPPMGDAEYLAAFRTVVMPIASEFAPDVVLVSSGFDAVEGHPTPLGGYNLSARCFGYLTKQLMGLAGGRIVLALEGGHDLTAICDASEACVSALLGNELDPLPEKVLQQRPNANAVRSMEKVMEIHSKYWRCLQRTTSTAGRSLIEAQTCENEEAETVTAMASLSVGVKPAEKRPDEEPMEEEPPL
T4 sequence (Q9UQL6 whole entry): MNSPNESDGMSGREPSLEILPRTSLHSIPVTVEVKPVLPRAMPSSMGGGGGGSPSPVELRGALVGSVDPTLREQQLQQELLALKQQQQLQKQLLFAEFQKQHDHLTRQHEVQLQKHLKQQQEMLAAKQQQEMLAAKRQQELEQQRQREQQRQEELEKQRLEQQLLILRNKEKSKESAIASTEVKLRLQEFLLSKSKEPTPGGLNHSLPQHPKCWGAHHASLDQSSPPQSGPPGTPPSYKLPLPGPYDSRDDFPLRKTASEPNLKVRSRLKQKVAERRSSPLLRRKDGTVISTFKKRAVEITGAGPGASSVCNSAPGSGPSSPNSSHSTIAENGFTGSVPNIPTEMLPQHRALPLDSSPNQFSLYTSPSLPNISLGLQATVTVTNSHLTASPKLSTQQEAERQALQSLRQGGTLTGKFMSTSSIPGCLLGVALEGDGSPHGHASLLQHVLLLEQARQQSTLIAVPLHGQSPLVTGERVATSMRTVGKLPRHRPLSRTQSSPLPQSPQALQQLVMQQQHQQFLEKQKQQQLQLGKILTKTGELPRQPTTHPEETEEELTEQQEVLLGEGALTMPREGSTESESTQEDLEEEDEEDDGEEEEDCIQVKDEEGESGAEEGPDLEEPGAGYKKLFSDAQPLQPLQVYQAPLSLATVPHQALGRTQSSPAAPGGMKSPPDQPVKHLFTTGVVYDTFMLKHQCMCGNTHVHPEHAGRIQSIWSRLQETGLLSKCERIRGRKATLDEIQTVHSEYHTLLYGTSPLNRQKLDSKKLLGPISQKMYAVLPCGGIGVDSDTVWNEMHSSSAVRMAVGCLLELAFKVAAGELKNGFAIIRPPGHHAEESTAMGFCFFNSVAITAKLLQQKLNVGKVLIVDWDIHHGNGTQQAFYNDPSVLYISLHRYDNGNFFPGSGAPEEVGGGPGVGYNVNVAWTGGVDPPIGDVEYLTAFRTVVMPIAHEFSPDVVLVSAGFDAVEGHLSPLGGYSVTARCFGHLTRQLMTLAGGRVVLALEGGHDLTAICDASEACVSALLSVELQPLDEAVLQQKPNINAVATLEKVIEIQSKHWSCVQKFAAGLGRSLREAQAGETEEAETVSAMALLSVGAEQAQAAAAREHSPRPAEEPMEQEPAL

`Cn1cc(-c2ccc(C(=O)Nc3cc(-c4ccccc4)ccc3N)cc2)c2cc[nH]c2c1=O` [NB503] was tested, and the “HEXIM1 mRNA levels” value [1] was “strongest effect”.
In the case of `Cn1cc(-c2ccc(C(=O)Nc3cc(-c4ccccc4)ccc3N)nc2)c2cc[nH]c2c1=O` [NB512], the remaining activity at 1 µM ([2]; 1 µM NB512) was 98.1%, the remaining activity at 10 µM ([2]; 10 µM NB512) was 98.6% and the remaining activity at 1 µM ([3]; 1 µM NB512, read-out: % Enzyme activity HDAC11) was 97.7%. The “% Enzyme activity HDAC11” value ([3]; 10 µM NB512) was 60%, the remaining activity at 10 µM ([3]; 10 µM NB512, read-out: % Enzyme activity HDAC11) was 59.9% and the remaining activity at 1 µM ([4]; 1 µM NB512) was 91.5%. For the same compound, the remaining activity at 10 µM ([4]; 10 µM NB512) was 82.4%, the remaining activity at 1 µM ([5]; 1 µM NB512) was 89.3% and the remaining activity at 10 µM ([5]; 10 µM NB512) was 84.1%. For the same compound, the remaining activity at 1 µM ([6]; 1 µM NB512) was 100%, the remaining activity at 10 µM ([6]; 10 µM NB512) was 90.2% and the remaining activity at 1 µM ([7]; 1 µM NB512) was 101%. The remaining activity at 10 µM ([7]; 10 µM NB512) was 101%, the remaining activity at 1 µM ([8]; 1 µM NB512) was 96.4% and the remaining activity at 10 µM ([8]; 10 µM NB512) was 97.9%. It also gave a remaining activity at 1 µM ([9]; 1 µM NB512) of 96.2%, a remaining activity at 10 µM ([9]; 10 µM NB512) of 85% and a remaining activity at 1 µM ([10]; 1 µM NB512) of 50.3%. For the same compound, the remaining activity at 10 µM ([10]; 10 µM NB512) was 13.5%, the remaining activity at 1 µM ([11]; 1 µM NB512, read-out: % Enzyme activity HDAC3) was 95.5% and the “% Enzyme activity HDAC3” value ([11]; 10 µM NB512) was 76%. It also gave a remaining activity at 10 µM ([11]; 10 µM NB512, read-out: % Enzyme activity HDAC3) of 76.4%.
